Laboratory results reported in patent US20240207302A1, “ANTIVIRAL COMPOUNDS, METHODS FOR THE MANUFACTURING OF COMPOUNDS, ANTIVIRAL PHARMACEUTICAL COMPOSITION, USE OF THE COMPOUNDS AND METHOD FOR THE ORAL TREATMENT OF CORONAVIRUS INFECTION AND RELATED DISEASES THEREOF” (priority 2021, published 2024).
pEC50: −log10 of the molar value.

Experiments:
SARS-COV-2 [1] = experiment: SARS-COV-2 viral RNA synthesis in HuH-7 cells (real time RT-PCR); type: cell-based
SARS-COV-2 [2] = experiment: Combination with SARS-COV-2 nsp14 (exonuclease) inhibitors in Calu-3 cells, infectious virus titers; type: cell-based
[3] = system: mouse bone marrow polychromatic erythrocytes; experiment: Micronucleus test in mouse bone marrow; type: in vivo; details: mice
Protocol: The ratio of polychromatic to normochromatic erythrocytes and the count of micronuclei were determined. This assay was conducted in compliance with the GLP principles.

[4] = Toxicokinetics in the 28-day study; type: in vivo, mice; details: for AUC / Cmax / Tmax / half-life: CD1, mouse, in vivo, po
[5] = Severe acute respiratory syndrome coronavirus 2, Calu-3, alone or in combination as labelled
[6] = female, 10 mg/kg, female mice, 10 mg/kg, Day 0
[7] = female, 10 mg/kg, female mice, 10 mg/kg, Day 28
[8] = female, 80 mg/kg, female mice, 80 mg/kg, Day 0
[9] = female, 80 mg/kg, female mice, 80 mg/kg, Day 28
[10] = female, 250 mg/kg, female mice, 250 mg/kg, Day 0
[11] = female, 250 mg/kg, female mice, 250 mg/kg, Day 28
[12] = male, 10 mg/kg, male mice, 10 mg/kg, Day 0
[13] = male, 10 mg/kg, male mice, 10 mg/kg, Day 28
[14] = male, 80 mg/kg, male mice, 80 mg/kg, Day 0
[15] = male, 80 mg/kg, male mice, 80 mg/kg, Day 28
[16] = male, 250 mg/kg, male mice, 250 mg/kg, Day 0
[17] = male, 250 mg/kg, male mice, 250 mg/kg, Day 28

For `c1coc(CNc2ncnc3[nH]cnc23)c1` [MB-905, kinetin], the pEC50 (SARS-COV-2 [1]; Severe acute respiratory syndrome coronavirus 2, Huh-7 (MOI 0.1 48 h), read-out: EC50) was 7.00, the “anti-coronavirus activity with simultaneous adenine” value (SARS-COV-2 [1]; huh-7, adenine at 10 μM) was “prevented” and the “anti-coronavirus activity (SARS-COV-2 replication)” value (SARS-COV-2 [1]; huh-7, treatment just after inoculation) was “concentration dependent inhibition”. For the same compound, the pEC50 (SARS-COV-2 [2]; [5]) was 6.52, the EC90 (SARS-COV-2 [2]; [5]) was 8000 nM and the “effect of co-treatment with raltegravir or dolutegravir (iEXO) on inhibition of SARS-COV-2” value (SARS-COV-2 [2]; calu-3, drug 10 μM, raltegravir or dolutegravir 5 μM) was “synergistic”. The “MNPCE/4,000 PCE (Mean ± S.D.)” value ([3]; 32 mg/Kg p.o.) was 8.50 ± 4.50, the “MNPCE/4,000 PCE (Mean ± S.D.)” value ([3]; 125 mg/Kg p.o.) was 8.50 ± 3.81 and the “MNPCE/4,000 PCE (Mean ± S.D.)” value ([3]; 500 mg/Kg p.o.) was 9.00 ± 2.45. It also gave an AUC [4, 6] of 422 ng·h/mL, a Cmax [4, 6] of 288 ng/mL and a Tmax [4, 6] of 15 min. For the same compound, the AUC [4, 7] was 56.6 ng·h/mL, the Cmax [4, 7] was 95 ng/mL and the Tmax [4, 7] was 15 min. It also gave an AUC [4, 8] of 5010 ng·h/mL, a Cmax [4, 8] of 747 ng/mL and a Tmax [4, 8] of 15 min. It also gave a half-life [4, 8] of 1550 min, an AUC [4, 9] of 1590 ng·h/mL and a Cmax [4, 9] of 464 ng/mL. For the same compound, the Tmax [4, 9] was 15 min, the half-life [4, 9] was 65.4 min and the AUC [4, 10] was 4910 ng·h/mL. For the same compound, the Cmax [4, 10] was 898 ng/mL, the Tmax [4, 10] was 15 min and the half-life [4, 10] was 185 min. It also gave an AUC [4, 11] of 2080 ng·h/mL, a Cmax [4, 11] of 716 ng/mL and a Tmax [4, 11] of 15 min. The half-life [4, 11] was 155 min, the AUC [4, 12] was 91 ng·h/mL and the Cmax [4, 12] was 99 ng/mL. The Tmax [4, 12] was 15 min, the AUC [4, 13] was 121 ng·h/mL and the Cmax [4, 13] was 144 ng/mL. It also gave a Tmax [4, 13] of 15 min, an AUC [4, 14] of 1020 ng·h/mL and a Cmax [4, 14] of 598 ng/mL. For the same compound, the Tmax [4, 14] was 15 min, the half-life [4, 14] was 72.6 min and the AUC [4, 15] was 1170 ng·h/mL. The Cmax [4, 15] was 750 ng/mL, the Tmax [4, 15] was 15 min and the AUC [4, 16] was 4480 ng·h/mL. It also gave a Cmax [4, 16] of 793 ng/mL, a Tmax [4, 16] of 60 min and an AUC [4, 17] of 1130 ng·h/mL. The Cmax [4, 17] was 588 ng/mL, the Tmax [4, 17] was 15 min and the half-life [4, 17] was 91.8 min. The “accumulation (AUCall and Cmax day 0 vs day 28)” value ([4]; mice, males and females) was “no there was an accumulation”.
